# Data from patent US20030087834A1, “Increased fertility and improved fetal development drug” (priority 1999, published 2003).
# How the values were obtained:
# human = assay: Examples 1-4: human taking tagatose before and during pregnancy; type: in vivo
# Description: A 70 kg human with a history of difficulty in conceiving begins taking tagatose twice daily at five g per dose, beginning one month before an attempt to conceive. […] A 70 kg human with a history of spontaneous abortions and stillbirths takes tagatose twice daily at five g per dose, beginning one month before an attempt to conceive. […] A 70 kg human takes precautions against giving birth to a below average weight infant by taking tagatose twice daily at five g per dose, beginning one month before an attempt to conceive. […] A 70 kg human inclined toward obesity desires a child, but is concerned that pregnancy may increase their food intake causing weight problems as experienced in their past pregnancies. They take tagatose twice daily at five g per dose, beginning one month before an attempt to conceive. […] They deliver a healthy, normal child.
# Female Crl:CD(SD)BR Rats = assay: Food consumption in pregnant rats fed D-tagatose; type: in vivo, rat; details: for Food intake (g/animal) / Food intake (g/kg body wt/day): mean ±SD
# Description: (§1) Safety tests performed on tagatose in its development as a low-calorie sweetener included developmental toxicity studies in rats. Rats are accepted by the US FDA as good models for humans in studying safety and efficacy of food additives and drugs. Newly impregnated rats were placed on various doses of tagatose in their daily diet. Female rats were housed with males nightly in a one-to-one ratio, and each morning inspections for vaginal plugs were made, and in their absence, vaginal smears were taken and tested for sperm. Those females which had been mated were selected for monitoring of fetal development and assigned to tagatose dose groups in a manner so as to provide an equal distribution of mated females among groups and also to equalize the Day 0 gestation mean body weights among the groups. There were 24 mated females in each group. On Days 6-15 of gestation three of the groups received respective total doses of 4,000, 12,000 and 20,000 mg/kg body wt/day administered via gastric intubation in two equally divided doses separated by a four-hour interval. Each dose was administered in 30 ml/kg body weight of distilled, deionized water. […] For a period of 20 days following mating, the rats were observed and measurements taken daily. Upon the 20th day, the rats were killed and a wide variety of physical, toxicological, and fetal developmental parameters was determined for treatment effects. […] However, I noted unpredictable, novel and beneficial effects with respect to fertility and fetal development.
# One of the common problems associated with pregnancy is overeating which can result in excess weight gain with its concomitant health risks to the mother and fetus. […] This represents a clear health advantage for both dam and fetus receiving tagatose.
# [1] = test system: Female Crl:CD (SD) BR Rats; assay: Developmental toxicity study in rats: reproductive performance and fetal development; type: in vivo, rat; details: for Females pregnant (%) / Fertility index / Litters with resorptions (%) / Number of dead fetuses / Number of females bearing viable fetuses / Number of females pregnant / Number of litters with resorptions / Total number of viable fetuses / Body weight (g) of viable fetuses / Body weight (g) of viable fetuses: Female fetuses / Body weight (g) of viable fetuses: Male fetuses / Number of corpora lutea / Number of female fetuses / Number of implantation sites / Number of males fetuses / Number of resorptions / Postimplantation loss = (resorptions/implantations) / Preimplantation loss = (corpora lutea-implants)/(corpora lutea): Days 6 to 15 of gestation; for Total number of viable fetuses: Day 20; for Body weight (g) of viable fetuses / Body weight (g) of viable fetuses: Female fetuses / Body weight (g) of viable fetuses: Male fetuses / Number of corpora lutea / Number of female fetuses / Number of implantation sites / Number of males fetuses / Number of resorptions / Postimplantation loss = (resorptions/implantations) / Preimplantation loss = (corpora lutea-implants)/(corpora lutea): mean ±SD
# Description: as §1
# [2] = 4,000 mg/kg/day, Days 0-6 of pregnancy (pretreatment)
# [3] = 4,000 mg/kg/day, Days 6-9 of pregnancy
# [4] = 4,000 mg/kg/day, Days 9-12 of pregnancy
# [5] = 4,000 mg/kg/day, Days 12-16 of pregnancy
# [6] = 4,000 mg/kg/day, Days 16-20 of pregnancy (posttreatment)
# [7] = 12,000 mg/kg/day, Days 0-6 of pregnancy (pretreatment)
# [8] = 12,000 mg/kg/day, Days 6-9 of pregnancy
# [9] = 12,000 mg/kg/day, Days 9-12 of pregnancy
# [10] = 12,000 mg/kg/day, Days 12-16 of pregnancy
# [11] = 12,000 mg/kg/day, Days 16-20 of pregnancy (posttreatment)
# [12] = 20,000 mg/kg/day, Days 0-6 of pregnancy (pretreatment)
# [13] = 20,000 mg/kg/day, Days 6-9 of pregnancy
# [14] = 20,000 mg/kg/day, Days 9-12 of pregnancy
# [15] = 20,000 mg/kg/day, Days 12-16 of pregnancy
# [16] = 20,000 mg/kg/day, Days 16-20 of pregnancy (posttreatment)
smiles,measurement,setting,value
O=C(CO)[C@@H](O)[C@@H](O)[C@H](O)CO [D-tagatose],Birth weight,"human; 70 kg human female, family history of low birth weight babies, five g twice daily",delivers a baby within the normal birth weight range
same,Food intake during pregnancy,"human; 70 kg human inclined toward obesity, five g twice daily",their average daily diet does not increase
same,Conception (increased fertility),"human; 70 kg human, history of difficulty conceiving, five g twice daily from one month before attempt",their attempt is successful and they are pregnant
same,Live birth,"human; 70 kg human, history of spontaneous abortions and stillbirths, five g twice daily",delivering a live birth
same,Food intake (g/animal),Female Crl:CD(SD)BR Rats; [2],144 ± 11 g/animal
same,Food intake (g/kg body wt/day),Female Crl:CD(SD)BR Rats; [2],103 ± 7 g/kg body wt/day
same,Food intake (g/animal),Female Crl:CD(SD)BR Rats; [3],70 ± 5 g/animal
same,Food intake (g/kg body wt/day),Female Crl:CD(SD)BR Rats; [3],84 ± 4 g/kg body wt/day
same,Food intake (g/animal),Female Crl:CD(SD)BR Rats; [4],78 ± 7 g/animal
same,Food intake (g/kg body wt/day),Female Crl:CD(SD)BR Rats; [4],91 ± 5 g/kg body wt/day
same,Food intake (g/animal),Female Crl:CD(SD)BR Rats; [5],112 ± 9 g/animal
same,Food intake (g/kg body wt/day),Female Crl:CD(SD)BR Rats; [5],90 ± 5 g/kg body wt/day
same,Food intake (g/animal),Female Crl:CD(SD)BR Rats; [6],129 ± 10 g/animal
same,Food intake (g/kg body wt/day),Female Crl:CD(SD)BR Rats; [6],94 ± 3 g/kg body wt/day
same,Food intake (g/animal),Female Crl:CD(SD)BR Rats; [7],148 ± 8 g/animal
same,Food intake (g/kg body wt/day),Female Crl:CD(SD)BR Rats; [7],104 ± 8 g/kg body wt/day
same,Food intake (g/animal),Female Crl:CD(SD)BR Rats; [8],58 ± 6 g/animal
same,Food intake (g/kg body wt/day),Female Crl:CD(SD)BR Rats; [8],69 ± 7 g/kg body wt/day
same,Food intake (g/animal),Female Crl:CD(SD)BR Rats; [9],73 ± 6 g/animal
same,Food intake (g/kg body wt/day),Female Crl:CD(SD)BR Rats; [9],84 ± 5 g/kg body wt/day
same,Food intake (g/animal),Female Crl:CD(SD)BR Rats; [10],105 ± 9 g/animal
same,Food intake (g/kg body wt/day),Female Crl:CD(SD)BR Rats; [10],83 ± 5 g/kg body wt/day
same,Food intake (g/animal),Female Crl:CD(SD)BR Rats; [11],137 ± 9 g/animal
same,Food intake (g/kg body wt/day),Female Crl:CD(SD)BR Rats; [11],99 ± 5 g/kg body wt/day
same,Food intake (g/animal),Female Crl:CD(SD)BR Rats; [12],149 ± 14 g/animal
same,Food intake (g/kg body wt/day),Female Crl:CD(SD)BR Rats; [12],107 ± 9 g/kg body wt/day
same,Food intake (g/animal),Female Crl:CD(SD)BR Rats; [13],43 ± 12 g/animal
same,Food intake (g/kg body wt/day),Female Crl:CD(SD)BR Rats; [13],51 ± 14 g/kg body wt/day
same,Food intake (g/animal),Female Crl:CD(SD)BR Rats; [14],67 ± 7 g/animal
same,Food intake (g/kg body wt/day),Female Crl:CD(SD)BR Rats; [14],80 ± 7 g/kg body wt/day
same,Food intake (g/animal),Female Crl:CD(SD)BR Rats; [15],94 ± 10 g/animal
same,Food intake (g/kg body wt/day),Female Crl:CD(SD)BR Rats; [15],77 ± 6 g/kg body wt/day
same,Food intake (g/animal),Female Crl:CD(SD)BR Rats; [16],138 ± 11 g/animal
same,Food intake (g/kg body wt/day),Female Crl:CD(SD)BR Rats; [16],102 ± 6 g/kg body wt/day
same,Weight loss in the dams,"Female Crl:CD(SD)BR Rats; except Day 6 to Day 9, attributed to laxation in the high dose groups",no consistent weight loss in the dams
same,Total daily food intake versus control group,"Female Crl:CD(SD)BR Rats; period on tagatose, Day 6 through Day 15",less than the daily food intakes of rats in the control group
same,Females pregnant (%),"[1]; 4,000 mg/kg/day",100%
same,Fertility index,"[1]; 4,000 mg/kg/day",100
same,Litters with resorptions (%),"[1]; 4,000 mg/kg/day",78.3%
same,Number of dead fetuses,"[1]; 4,000 mg/kg/day",0
same,Number of females bearing viable fetuses,"[1]; 4,000 mg/kg/day",23
same,Number of females pregnant,"[1]; 4,000 mg/kg/day",23
same,Number of litters with resorptions,"[1]; 4,000 mg/kg/day",18
same,Total number of viable fetuses,"[1]; 4,000 mg/kg/day",354
same,Body weight (g) of viable fetuses,"[1]; 4,000 mg/kg/day",3.56 ± 0.21 g
same,Body weight (g) of viable fetuses: Female fetuses,"[1]; 4,000 mg/kg/day",3.49 ± 0.20 g
same,Body weight (g) of viable fetuses: Male fetuses,"[1]; 4,000 mg/kg/day",3.64 ± 0.22 g
same,Number of corpora lutea,"[1]; 4,000 mg/kg/day",17.7 ± 2.8
same,Number of female fetuses,"[1]; 4,000 mg/kg/day",8.0 ± 2.2
same,Number of implantation sites,"[1]; 4,000 mg/kg/day",16.5 ± 2.3
same,Number of males fetuses,"[1]; 4,000 mg/kg/day",7.4 ± 2.3
same,Number of resorptions,"[1]; 4,000 mg/kg/day",1.1 ± 0.9
same,Postimplantation loss = (resorptions/implantations),"[1]; 4,000 mg/kg/day",0.068 ± 0.051
same,Preimplantation loss = (corpora lutea-implants)/(corpora lutea),"[1]; 4,000 mg/kg/day",0.053 ± 0.113
same,Females pregnant (%),"[1]; 12,000 mg/kg/day",91.3%
same,Fertility index,"[1]; 12,000 mg/kg/day",91.3
same,Litters with resorptions (%),"[1]; 12,000 mg/kg/day",28.6%
same,Number of dead fetuses,"[1]; 12,000 mg/kg/day",0
same,Number of females bearing viable fetuses,"[1]; 12,000 mg/kg/day",21
same,Number of females pregnant,"[1]; 12,000 mg/kg/day",21
same,Number of litters with resorptions,"[1]; 12,000 mg/kg/day",6
same,Total number of viable fetuses,"[1]; 12,000 mg/kg/day",322
same,Body weight (g) of viable fetuses,"[1]; 12,000 mg/kg/day",3.75 ± 0.32 g
same,Body weight (g) of viable fetuses: Female fetuses,"[1]; 12,000 mg/kg/day",3.65 ± 0.35 g
same,Body weight (g) of viable fetuses: Male fetuses,"[1]; 12,000 mg/kg/day",3.84 ± 0.33 g
same,Number of corpora lutea,"[1]; 12,000 mg/kg/day",17.7 ± 2.9
same,Number of female fetuses,"[1]; 12,000 mg/kg/day",7.5 ± 2.2
same,Number of implantation sites,"[1]; 12,000 mg/kg/day",15.9 ± 2.9
same,Number of males fetuses,"[1]; 12,000 mg/kg/day",7.8 ± 2.3
same,Number of resorptions,"[1]; 12,000 mg/kg/day",0.5 ± 0.9
same,Postimplantation loss = (resorptions/implantations),"[1]; 12,000 mg/kg/day",0.043 ± 0.087
same,Preimplantation loss = (corpora lutea-implants)/(corpora lutea),"[1]; 12,000 mg/kg/day",0.094 ± 0.151
same,Females pregnant (%),"[1]; 20,000 mg/kg/day",100%
same,Fertility index,"[1]; 20,000 mg/kg/day",100
same,Litters with resorptions (%),"[1]; 20,000 mg/kg/day",54.2%
same,Number of dead fetuses,"[1]; 20,000 mg/kg/day",0
same,Number of females bearing viable fetuses,"[1]; 20,000 mg/kg/day",24
same,Number of females pregnant,"[1]; 20,000 mg/kg/day",24
same,Number of litters with resorptions,"[1]; 20,000 mg/kg/day",13
same,Total number of viable fetuses,"[1]; 20,000 mg/kg/day",350
same,Body weight (g) of viable fetuses,"[1]; 20,000 mg/kg/day",3.57 ± 0.24 g
same,Body weight (g) of viable fetuses: Female fetuses,"[1]; 20,000 mg/kg/day",3.49 ± 0.19 g
same,Body weight (g) of viable fetuses: Male fetuses,"[1]; 20,000 mg/kg/day",3.68 ± 0.27 g
same,Number of corpora lutea,"[1]; 20,000 mg/kg/day",17.4 ± 2.8
same,Number of female fetuses,"[1]; 20,000 mg/kg/day",7.1 ± 2.3
same,Number of implantation sites,"[1]; 20,000 mg/kg/day",15.3 ± 2.9
same,Number of males fetuses,"[1]; 20,000 mg/kg/day",7.5 ± 2.3
same,Number of resorptions,"[1]; 20,000 mg/kg/day",0.8 ± 0.8
same,Postimplantation loss = (resorptions/implantations),"[1]; 20,000 mg/kg/day",0.047 ± 0.049
same,Preimplantation loss = (corpora lutea-implants)/(corpora lutea),"[1]; 20,000 mg/kg/day",0.107 ± 0.162
same,Adverse effects in the dams or fetuses,"[1]; 4,000, 12,000 and 20,000 mg/kg body wt/day via gastric intubation, Days 6-15 of gestation, killed Day 20",No adverse effects in the dams or fetuses were found
same,Fetal weight versus control rats,"[1]; each tagatose group, total, males and females",weighed more than the fetuses of the control rats
same,Fetal weight relative to normal weight range for age,"[1]; fetuses from rats on tagatose, normal range 3.35-3.86 g males, 3.19-3.63 g females",within the normal weight range for their ages
